Consider 4 molecules from ChEMBL document CHEMBL4184243, “Optimization of antimalarial, and anticancer activities of (E)-methyl 2-(7-chloroquinolin-4-ylthio)-3-(4-hydroxyphenyl) acrylate” (Bioorg Med Chem, 2018).

Molecules are shown by their SMILES.

A word on the IC50: it is the concentration at which inhibition is half-maximal. Broadly, the inhibition is the change of the read-out against control, counted positive when it falls.

The first series deals with Jurkat E6.1. The experiment in a line: Induction of apoptosis in human Jurkat E6-1 cells assessed as necrotic cells at 1 uM after 24 hrs by Annexin-V-FITC/propidium iodide staining based flow cytometric analysis (reference value: 1.26 +/- 0.24 %). The format is functional.
Details: not given
On to `COc1cccc2c1C(=O)c1c(O)c3c(c(O)c1C2=O)C[C@@](O)(C(=O)CO)C[C@@H]3O[C@H]1C[C@H](N)[C@H](O)[C@H](C)O1` [DOXORUBICIN], for which the Activity worked out at 32.6%.

The next series deals with HL-60. The experiment in a line: Induction of apoptosis in human HL60 cells assessed as late apoptotic cells at 5 uM after 24 hrs by Annexin-V-FITC/propidium iodide staining based flow cytometric analysis (reference value: 0.85 +/- 0.13 %). It counts as functional.
Details: not given
A general note: Flow cytometry measures light scatter and fluorescence of single cells or particles in a stream.
On to `COC(=O)/C(=C\c1ccc(OC(=O)c2cc(OC)c(OC)c(OC)c2)cc1)Sc1ccnc2cc(Cl)ccc12`, for which the Activity turned out to be 11.3%.
Still for that read-out and setting: then `COC(=O)/C(=C\c1ccc(OC(=O)c2ccc(OC)c(OC)c2)cc1)Sc1ccnc2cc(Cl)ccc12`, with 2.15%; and `COC(=O)/C(=C\c1ccc(O)cc1)Sc1ccnc2cc(Cl)ccc12`, with 3.15%.

Tested on in a further series: not listed separately
Description: Selectivity index, ratio of IC50 for human lymphocytes to IC50 for human HL60 cells. The settings on record: human lymphocytes versus HL60 cells, read-out: Ratio IC50. The format is toxicity.
Turning to `COC(=O)/C(=C\c1ccc(OC(=O)c2cc(OC)c(OC)c(OC)c2)cc1)Sc1ccnc2cc(Cl)ccc12`, the selectivity ratio stood at 8.3.
`COC(=O)/C(=C\c1ccc(OC(=O)c2ccc(OC)c(OC)c2)cc1)Sc1ccnc2cc(Cl)ccc12`: the selectivity ratio is 9.66.
`COC(=O)/C(=C\c1ccc(O)cc1)Sc1ccnc2cc(Cl)ccc12`: the selectivity ratio is 7.82.

A further series concerns HL-60. Description: Induction of apoptosis in human HL60 cells assessed as necrotic cells at 5 uM after 24 hrs by Annexin-V-FITC/propidium iodide staining based flow cytometric analysis (reference value: 1.96 +/- 0.33 %). It counts as functional.
Details: not given
As to `COC(=O)/C(=C\c1ccc(OC(=O)c2cc(OC)c(OC)c(OC)c2)cc1)Sc1ccnc2cc(Cl)ccc12`, the Activity amounted to 45.8%.
Same read-out and setting: then `COC(=O)/C(=C\c1ccc(OC(=O)c2ccc(OC)c(OC)c2)cc1)Sc1ccnc2cc(Cl)ccc12`, with 40.2%.
As for `COC(=O)/C(=C\c1ccc(O)cc1)Sc1ccnc2cc(Cl)ccc12`, the Activity amounted to 45%.

The test system of a further series is Jurkat E6.1. Description: Cytotoxicity against human Jurkat E6-1 cells after 24 hrs by MTT assay. It counts as functional, cell-based. The conditions noted are these: Jurkat E6.1, 24 h. For orientation: Tetrazolium assays rely on reduction of a dye to a coloured formazan, in cell work by metabolically active cells.
For `COC(=O)/C(=C\c1ccc(OC(=O)c2cc(OC)c(OC)c(OC)c2)cc1)Sc1ccnc2cc(Cl)ccc12`, the concentration for half-maximal inhibition (IC50) is 4.57 µM.
Still for that read-out and setting: then `COC(=O)/C(=C\c1ccc(OC(=O)c2ccc(OC)c(OC)c2)cc1)Sc1ccnc2cc(Cl)ccc12`, with 8.29 µM; and `COC(=O)/C(=C\c1ccc(O)cc1)Sc1ccnc2cc(Cl)ccc12`, with 5.18 µM.
`COc1cccc2c1C(=O)c1c(O)c3c(c(O)c1C2=O)C[C@@](O)(C(=O)CO)C[C@@H]3O[C@H]1C[C@H](N)[C@H](O)[C@H](C)O1` [DOXORUBICIN] displayed an IC50 of 1.03 µM.

The next series concerns Lymphocyte. Description: Cytotoxicity against human lymphocytes after 24 to 48 hrs by MTT assay. The format is cell-based.
Details: not given
For `COC(=O)/C(=C\c1ccc(OC(=O)c2cc(OC)c(OC)c(OC)c2)cc1)Sc1ccnc2cc(Cl)ccc12`, the IC50 was 35.2 µM.
Molecule `COC(=O)/C(=C\c1ccc(OC(=O)c2ccc(OC)c(OC)c2)cc1)Sc1ccnc2cc(Cl)ccc12` displayed an IC50 of 51.1 µM.
The same measure, in the same setting: under `COC(=O)/C(=C\c1ccc(O)cc1)Sc1ccnc2cc(Cl)ccc12` stands 33.7 µM; under `COc1cccc2c1C(=O)c1c(O)c3c(c(O)c1C2=O)C[C@@](O)(C(=O)CO)C[C@@H]3O[C@H]1C[C@H](N)[C@H](O)[C@H](C)O1` [DOXORUBICIN], 4.36 µM.

The test system of the next series is Jurkat E6.1. The experiment in a line: Induction of apoptosis in human Jurkat E6-1 cells assessed as early apoptotic cells at 5 uM after 24 hrs by Annexin-V-FITC/propidium iodide staining based flow cytometric analysis (reference value: 0.5 +/- 0.07 %).
Details: not given
It counts as functional.
Turning to `COC(=O)/C(=C\c1ccc(OC(=O)c2cc(OC)c(OC)c(OC)c2)cc1)Sc1ccnc2cc(Cl)ccc12`, the Activity stood at 2.41%.
Same read-out and setting: then `COC(=O)/C(=C\c1ccc(OC(=O)c2ccc(OC)c(OC)c2)cc1)Sc1ccnc2cc(Cl)ccc12`, with 0.76%; and `COC(=O)/C(=C\c1ccc(O)cc1)Sc1ccnc2cc(Cl)ccc12`, with 0.45%.

Tested on in the next series: not listed separately
Description: Selectivity index, ratio of IC50 for human lymphocytes to IC50 for human Jurkat E6-1 cells. It counts as toxicity. The settings on record: human lymphocytes versus Jurkat E6-1 cells, read-out: Ratio IC50.
Regarding `COC(=O)/C(=C\c1ccc(OC(=O)c2cc(OC)c(OC)c(OC)c2)cc1)Sc1ccnc2cc(Cl)ccc12`, the selectivity ratio stood at 7.7.
Consider `COC(=O)/C(=C\c1ccc(OC(=O)c2ccc(OC)c(OC)c2)cc1)Sc1ccnc2cc(Cl)ccc12`, for which the selectivity ratio was determined as 6.16.
Still for that read-out and setting: under `COC(=O)/C(=C\c1ccc(O)cc1)Sc1ccnc2cc(Cl)ccc12` stands 6.51.

The subject of the next series is Jurkat E6.1. The experiment in a line: Induction of apoptosis in human Jurkat E6-1 cells assessed as early apoptotic cells at 1 uM after 24 hrs by Annexin-V-FITC/propidium iodide staining based flow cytometric analysis (reference value: 0.5 +/- 0.07 %).
Details: not given
It counts as functional.
Take `COc1cccc2c1C(=O)c1c(O)c3c(c(O)c1C2=O)C[C@@](O)(C(=O)CO)C[C@@H]3O[C@H]1C[C@H](N)[C@H](O)[C@H](C)O1` [DOXORUBICIN]: the Activity was 0.89%.

For another series, the system named is HL-60. Description: Induction of apoptosis in human HL60 cells assessed as necrotic cells at 1 uM after 24 hrs by Annexin-V-FITC/propidium iodide staining based flow cytometric analysis (reference value: 1.96 +/- 0.33 %). It counts as functional.
Details: not given
In the case of `COc1cccc2c1C(=O)c1c(O)c3c(c(O)c1C2=O)C[C@@](O)(C(=O)CO)C[C@@H]3O[C@H]1C[C@H](N)[C@H](O)[C@H](C)O1` [DOXORUBICIN], the Activity is 30.2%.

The subject of a further series is Plasmodium berghei. Description: Antimalarial activity against chloroquine-susceptible Plasmodium berghei ANKA infected in Balb-C mouse assessed as parasitemia at 10 mg/kg, ip administered once daily for 4 days measured post last dose by Giemsa staining based method (reference value: 65.8 +/- 4.38%). It counts as functional.
Details: not given
In the case of `COC(=O)/C(=C\c1ccc(O)cc1)Sc1ccnc2cc(Cl)ccc12`, the Activity is listed as 1.4%.

Tested on in a further series: not listed separately
The experiment in a line: Inhibition of beta-hematin formation assessed as reduction in acetate buffer-initiated hemozoin formation measured after 48 hrs. On the set-up: concentration or dose not given beside the values. The settings on record: concentration not given here.
With `COC(=O)/C(=C\c1ccc(OC(=O)c2cc(OC)c(OC)c(OC)c2)cc1)Sc1ccnc2cc(Cl)ccc12`, the inhibition was 2.48%.
Consider `COC(=O)/C(=C\c1ccc(OC(=O)c2ccc(OC)c(OC)c2)cc1)Sc1ccnc2cc(Cl)ccc12`, for which the inhibition is 12.7%.
With `COC(=O)/C(=C\c1ccc(O)cc1)Sc1ccnc2cc(Cl)ccc12`, the inhibition is 72.4%.

The test system of the next series is HL-60. The experiment in a line: Induction of apoptosis in human HL60 cells assessed as late apoptotic cells at 1 uM after 24 hrs by Annexin-V-FITC/propidium iodide staining based flow cytometric analysis (reference value: 0.85 +/- 0.13 %). The format is functional.
Details: not given
As to `COc1cccc2c1C(=O)c1c(O)c3c(c(O)c1C2=O)C[C@@](O)(C(=O)CO)C[C@@H]3O[C@H]1C[C@H](N)[C@H](O)[C@H](C)O1` [DOXORUBICIN], the Activity was found to be 20.8%.

A further series concerns Jurkat E6.1. Description: Induction of apoptosis in human Jurkat E6-1 cells assessed as late apoptotic cells at 5 uM after 24 hrs by Annexin-V-FITC/propidium iodide staining based flow cytometric analysis (reference value: 0.73 +/- 0.14 %). It counts as functional.
Details: not given
With `COC(=O)/C(=C\c1ccc(OC(=O)c2cc(OC)c(OC)c(OC)c2)cc1)Sc1ccnc2cc(Cl)ccc12`, the Activity is recorded as 10.3%.
As for `COC(=O)/C(=C\c1ccc(OC(=O)c2ccc(OC)c(OC)c2)cc1)Sc1ccnc2cc(Cl)ccc12`, the Activity came out at 13.5%.
Turning to `COC(=O)/C(=C\c1ccc(O)cc1)Sc1ccnc2cc(Cl)ccc12`, the Activity came to 2.12%.

In the next series the test system is Jurkat E6.1. The experiment in a line: Induction of apoptosis in human Jurkat E6-1 cells assessed as late apoptotic cells at 1 uM after 24 hrs by Annexin-V-FITC/propidium iodide staining based flow cytometric analysis (reference value: 0.73 +/- 0.14 %).
Details: not given
The format is functional.
For the molecule `COc1cccc2c1C(=O)c1c(O)c3c(c(O)c1C2=O)C[C@@](O)(C(=O)CO)C[C@@H]3O[C@H]1C[C@H](N)[C@H](O)[C@H](C)O1` [DOXORUBICIN], the Activity stood at 19.8%.

A further series deals with Jurkat E6.1. The experiment in a line: Induction of apoptosis in human Jurkat E6-1 cells assessed as necrotic cells at 5 uM after 24 hrs by Annexin-V-FITC/propidium iodide staining based flow cytometric analysis (reference value: 1.26 +/- 0.24 %). The format is functional.
Details: not given
`COC(=O)/C(=C\c1ccc(OC(=O)c2cc(OC)c(OC)c(OC)c2)cc1)Sc1ccnc2cc(Cl)ccc12`: the Activity turned out to be 35.6%.
The same measure, in the same setting: then `COC(=O)/C(=C\c1ccc(OC(=O)c2ccc(OC)c(OC)c2)cc1)Sc1ccnc2cc(Cl)ccc12`, with 21.5%; and `COC(=O)/C(=C\c1ccc(O)cc1)Sc1ccnc2cc(Cl)ccc12`, with 38.8%.

For another series, the system named is HL-60. The experiment in a line: Induction of apoptosis in human HL60 cells assessed as early apoptotic cells at 5 uM after 24 hrs by Annexin-V-FITC/propidium iodide staining based flow cytometric analysis (reference value: 0.36 +/- 0.02 %). The format is functional.
Details: not given
Turning to `COC(=O)/C(=C\c1ccc(OC(=O)c2cc(OC)c(OC)c(OC)c2)cc1)Sc1ccnc2cc(Cl)ccc12`, the Activity is 0.75%.
With `COC(=O)/C(=C\c1ccc(OC(=O)c2ccc(OC)c(OC)c2)cc1)Sc1ccnc2cc(Cl)ccc12`, the Activity is on record as 0.33%.
In the case of `COC(=O)/C(=C\c1ccc(O)cc1)Sc1ccnc2cc(Cl)ccc12`, the Activity is on record as 0.74 - 0.75%.

The test system of another series is HL-60. The experiment in a line: Cytotoxicity against human HL60 cells after 24 hrs by MTT assay. It counts as functional, cell-based. The conditions noted are these: HL-60, 24 h.
In the case of `COC(=O)/C(=C\c1ccc(OC(=O)c2cc(OC)c(OC)c(OC)c2)cc1)Sc1ccnc2cc(Cl)ccc12`, the IC50 worked out at 4.24 µM.
Still for that read-out and setting: then `COC(=O)/C(=C\c1ccc(OC(=O)c2ccc(OC)c(OC)c2)cc1)Sc1ccnc2cc(Cl)ccc12`, with 5.29 µM.
For `COC(=O)/C(=C\c1ccc(O)cc1)Sc1ccnc2cc(Cl)ccc12`, the IC50 is 4.31 µM.
The molecule `COc1cccc2c1C(=O)c1c(O)c3c(c(O)c1C2=O)C[C@@](O)(C(=O)CO)C[C@@H]3O[C@H]1C[C@H](N)[C@H](O)[C@H](C)O1` [DOXORUBICIN] registered an IC50 of 1.6 µM.

The next series concerns HL-60. The experiment in a line: Induction of apoptosis in human HL60 cells assessed as early apoptotic cells at 1 uM after 24 hrs by Annexin-V-FITC/propidium iodide staining based flow cytometric analysis (reference value: 0.36 +/- 0.02 %). The format is functional.
Details: not given
Consider `COc1cccc2c1C(=O)c1c(O)c3c(c(O)c1C2=O)C[C@@](O)(C(=O)CO)C[C@@H]3O[C@H]1C[C@H](N)[C@H](O)[C@H](C)O1` [DOXORUBICIN], for which the Activity was determined as 1.91%.

The test system of another series is Plasmodium berghei. The experiment in a line: Antimalarial activity against chloroquine-susceptible Plasmodium berghei ANKA infected in Balb-C mouse assessed as mean survival days at 10 mg/kg, ip administered once daily for 4 days (reference value: 8.4 +/- 0.15 day). It counts as functional.
Details: not given
Turning to `COC(=O)/C(=C\c1ccc(O)cc1)Sc1ccnc2cc(Cl)ccc12`, the MSD turned out to be 24.8 days.
